In assay [1] the target is T1, serotonin 5-HT1A receptor (human recombinant expressed in HEK-293 cells) (Homo sapiens, UniProt P08908).
T1 construct: expressed in transfected cells; host or cells: HEK-293 cells (from the result head)
T1 sequence (P08908 1-422): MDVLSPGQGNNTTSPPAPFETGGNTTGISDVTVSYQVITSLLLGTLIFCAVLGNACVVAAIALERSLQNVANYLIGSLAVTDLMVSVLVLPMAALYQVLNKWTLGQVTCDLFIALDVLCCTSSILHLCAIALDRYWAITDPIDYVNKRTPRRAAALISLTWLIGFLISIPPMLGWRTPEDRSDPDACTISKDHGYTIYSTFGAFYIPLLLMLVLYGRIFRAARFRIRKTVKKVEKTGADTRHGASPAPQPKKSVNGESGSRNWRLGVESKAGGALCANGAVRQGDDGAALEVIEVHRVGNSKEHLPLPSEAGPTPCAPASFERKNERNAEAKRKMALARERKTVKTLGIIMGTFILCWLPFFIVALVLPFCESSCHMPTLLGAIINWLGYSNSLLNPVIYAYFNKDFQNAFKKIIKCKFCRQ
Nature of the assay: Serotonin, 5HT1A (human recombinant) radioligand binding assay, [3H]-8-OH-DPAT. Conditions: human recombinant in HEK-293 cells; for IC50: six concentrations 0.5-1000 nM. The protocol: (§1) The reactions were carried out in 50 mM TRIS-Hal (pH 7.4) containing 10 mM MgSO4, 0.5 mM EDTA and 0.1% Ascorbic acid at room temperature for 1 hour. The reaction was terminated by rapid vacuum filtration onto glass fiber filters. Radioactivity trapped onto the filters was determined and compared to control values in order to ascertain any interactions of test compounds with the cloned serotonin—5HT1A binding site (Literature Reference: Hoyer, D. et al. Eur. Journal Pharmacol. 1985, 118, 13-23; Schoeffier, P. and Hoyer, D. Naunyn-Schmiedeberg's Arch. Pharmac. 1989, 340, 135-138) • Serotonin, 5HT2A (human) binding assay: • Materials and Methods: • Receptor Source: Human Cortex • Radioligand: [^3H]-Ketanserin (60-90 Ci/mmol) • Control Compound: Ketanserin • Incubation Conditions:
(§2) The radioligand binding assays for dopamine-D2S, serotonin-5HT1A and serotonin-5HT2A were carried out at six different concentrations and the test concentrations were 0.5 nM, 1 nM, 10 nm, 100 nM, 300 nM and 1000 nM.

Assay [2] addresses T2, dopamine D2S receptor (human recombinant expressed in CHO cells) (Homo sapiens, UniProt P14416).
T2 construct: expressed in transfected cells; host or cells: CHO cells
Nature of the assay: Dopamine, D2S (human recombinant) radioligand binding assay, [3H]Spiperone. Conditions: for IC50: six concentrations 0.5-1000 nM. Here is the method: The piperazine derivatives comprising Formulae (I)-(X) described in this invention were tested in the in vitro pharmacological assays to evaluate their activities for dopamine, D2S, serotonin, 5-HT1A and serotonin, 5-HT2A receptors. The in vitro assay protocols and literature references are described herein. • Dopamine, D2S (human recombinant) binding assay: • Materials and Methods: [table] The reactions were carried out in 50 mM TRIS-Hal (pH 7.4) containing 120 mM NaCl, 5 mM KCl, 5 mM MgCl2, 1 mM EDTA for 60 minutes at 25 C. The reaction was terminated by rapid vacuum filtration onto glass fiber filters. Radioactivity trapped onto the filters was determined and compared to control values in order to ascertain any interactions of test compounds with the cloned dopamine—D2 short binding site (Literature Reference: Jarvis, K. R. et al. Journal of Receptor Research 1993, 13(1-4), 573-590; Gundlach, A. L. et al. Life Sciences 1984, 35, 1981-1988.) • Serotonin, 5HT1A (human recombinant) binding assay: • Materials and Methods: The radioligand binding assays for dopamine-D2S, serotonin-5HT1A and serotonin-5HT2A were carried out at six different concentrations and the test concentrations were 0.5 nM, 1 nM, 10 nm, 100 nM, 300 nM and 1000 nM.

In assay [3] the target is T3, serotonin 5-HT2A receptor (Human Cortex) (Homo sapiens, UniProt P28223).
T3 construct: Receptor Source: Human Cortex; from tissue; host or cells: human cortex
Nature of the assay: Serotonin, 5HT2A (human) radioligand binding assay, [3H]-Ketanserin. Conditions: for IC50: six concentrations 0.5-1000 nM. Here is the method:
as §1
The reactions were carried out in 50 mM TRIS-Hal (pH 7.6) at room temperature for 90 minutes. The reaction was terminated by rapid vacuum filtration onto glass fiber filters. Radioactivity trapped onto the filters was determined and compared to control values in order to ascertain any interactions of test compounds with the serotonin—5HT2A binding site (Literature Reference: Leysen, J. E. et al. Mol. Pharmacol. 1982, 21, 301-314; Martin, G. R. and Humphrey, P. P. A. Neuropharmacol. 1994, 33(3/4), 261-273.)
as §2

Where a name gives a salt, the structure may show the parent alone.

T2 sequence (P14416 1-414 isoform P14416-2): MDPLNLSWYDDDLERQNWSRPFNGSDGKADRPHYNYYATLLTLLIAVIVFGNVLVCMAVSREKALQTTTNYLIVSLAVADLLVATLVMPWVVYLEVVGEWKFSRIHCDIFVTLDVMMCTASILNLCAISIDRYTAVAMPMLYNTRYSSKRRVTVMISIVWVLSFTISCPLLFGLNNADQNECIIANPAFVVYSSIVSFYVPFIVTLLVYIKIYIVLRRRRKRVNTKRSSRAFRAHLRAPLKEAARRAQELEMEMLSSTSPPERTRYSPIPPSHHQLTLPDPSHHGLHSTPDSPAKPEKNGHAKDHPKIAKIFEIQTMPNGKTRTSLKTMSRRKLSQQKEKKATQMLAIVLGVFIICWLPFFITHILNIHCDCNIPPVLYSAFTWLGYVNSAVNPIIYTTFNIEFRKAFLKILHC
T3 sequence (P28223 whole entry): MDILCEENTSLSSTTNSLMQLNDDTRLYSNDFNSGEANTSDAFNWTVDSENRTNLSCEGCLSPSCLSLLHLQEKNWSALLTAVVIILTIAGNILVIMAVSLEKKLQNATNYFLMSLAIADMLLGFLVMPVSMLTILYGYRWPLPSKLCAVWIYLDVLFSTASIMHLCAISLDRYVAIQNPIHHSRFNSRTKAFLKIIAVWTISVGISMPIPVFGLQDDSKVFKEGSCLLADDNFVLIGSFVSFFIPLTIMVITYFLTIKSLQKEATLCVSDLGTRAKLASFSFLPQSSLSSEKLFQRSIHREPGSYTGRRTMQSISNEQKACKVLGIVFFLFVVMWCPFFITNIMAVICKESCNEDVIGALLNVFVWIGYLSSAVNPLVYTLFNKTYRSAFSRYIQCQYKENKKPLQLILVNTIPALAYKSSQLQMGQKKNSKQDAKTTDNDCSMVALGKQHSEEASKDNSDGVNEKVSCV

Turning to `CCOC(=O)CCCOc1ccccc1N1CCN(CCCCOc2ccc3c(c2)NC(=O)CO3)CC1` [Compound 18a, Ethyl 4-(2-(4-(4-(3-oxo-3,4-dihydro-2H-benzo[b][1,4]oxazin-6-yloxy)butyl)piperazin-1-yl)phenoxy)butanoate hydrochloride], the Ki in assay [1] came out at 10.2 nM; in assay [2] it was 6.77 nM; in assay [3], 282 nM. The IC50 in assay [1] was 16.7 nM; in assay [2] it was 19.2 nM; in assay [3] it was 572 nM.

Take `CCOC(=O)C(C)(C)Oc1ccccc1N1CCN(CCCCOc2ccc3c(c2)NC(=O)CO3)CC1` [Compound 18c, Ethyl 2-methyl-2-(2-(4-(4-(3-oxo-3,4-dihydro-2H-benzo[b][1,4]oxazin-6-yloxy)butyl)piperazin-1-yl)phenoxy)propanoate hydrochloride]: the inhibition constant (Ki) in assay [1] amounted to 2.67 nM; in assay [2] it was 2.09 nM; in assay [3], 185 nM. The IC50 is 4.41 nM in assay [1], 5.93 nM in assay [2] and 376 nM in assay [3].

`CCOC(=O)CN1C(=O)COc2ccc(OCCCCN3CCN(c4cccc(Cl)c4Cl)CC3)cc21` [Compound 28c, Ethyl 2-(6-(4-(4-(2,3-dichlorophenyl)piperazin-1-yl)butoxy)-3-oxo-2H-benzo[b][1,4]oxazin-4(3H)-yl)acetate hydrochloride]: the Ki in assay [1] stood at 2.96 nM; in assay [2], 15.5 nM; in assay [3], 106 nM. The IC50 in assay [1] amounted to 4.45 nM; in assay [2] it was 49.4 nM; in assay [3] it was 237 nM.

For `O=C(CCCN1CCN(c2cccc(Cl)c2Cl)CC1)Nc1ccc2c(c1)NC(=O)CO2` [Compound 5b, 4-(4-(2,3-Dichlorophenyl)piperazin-1-yl)-N-(3-oxo-3,4-dihydro-2H-benzo[b][1,4]oxazin-6-yl)butanamide hydrochloride], the Ki was determined as 11.4 nM in assay [1], 2.89 nM in assay [2] and 57.4 nM in assay [3]. Besides, the IC50 came to 18.5 nM in assay [1], 7.89 nM in assay [2] and 110 nM in assay [3].

Turning to `CCOC(=O)C(C)(C)CCOc1ccccc1N1CCN(CCCCOc2ccc3c(c2)NC(=O)CO3)CC1` [Compound 18b, Ethyl 2,2-dimethyl-4-(2-(4-(4-(3-oxo-3,4-dihydro-2H-benzo[b][1,4]oxazin-6-yloxy)butyl)piperazin-1-yl)phenoxy)butanoate hydrochloride], the Ki in assay [1] was found to be 3.3 nM; in assay [2], 50.2 nM; in assay [3], 340 nM. Also, the IC50 in assay [1] turned out to be 5.44 nM; in assay [2], 147 nM; in assay [3], 622 nM.

Values taken from patent US8207163B2, “Compositions, synthesis, and methods of using piperazine based antipsychotic agents” (Reviva Pharmaceuticals, Inc., priority 2008, dated 2012).
